Laboratory results published in paper PMC3921138, “Identification and Biochemical Characterization of Four Wood-Associated Glucuronoxylan Methyltransferases in Populus” (PLoS ONE, 2014).

Columns and labels:
Assay in all cases: radiometric […]-methyl transfer, Lineweaver-Burk
Type in all cases: biochemical
Conditions in all cases: co-substrate S-[14C-methyl]adenosylmethionine; 100 mM Tris-HCl pH 8.0, 1 mM CoCl2, 0.5% Triton X-100; temperature of kinetic assay not stated; read-out: apparent K m
[1] = target: T1, PtrGXM4 (Populus trichocarpa, UniProt W8JN21)
T1 construct: gene GXM4; transmembrane domain removed; E. coli; full-length start MRSKNQS, recombinant start SPRPNSS, C-terminus SGKPFCP (translated from primers)
T1 sequence (W8JN21 34-301): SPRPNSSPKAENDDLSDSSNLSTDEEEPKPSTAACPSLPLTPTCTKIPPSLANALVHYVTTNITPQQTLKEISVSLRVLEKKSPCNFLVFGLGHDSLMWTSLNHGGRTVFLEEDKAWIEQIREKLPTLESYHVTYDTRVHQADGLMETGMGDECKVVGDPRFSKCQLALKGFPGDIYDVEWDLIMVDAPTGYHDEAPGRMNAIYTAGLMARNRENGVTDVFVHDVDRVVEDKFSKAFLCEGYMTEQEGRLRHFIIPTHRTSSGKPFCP

[2] = target: T2, PtrGXM2 (Populus trichocarpa, UniProt W8JCL4)
T2 construct: gene GXM2; transmembrane domain removed; E. coli; full-length start MRPKSQQ, recombinant start SSSQESS, C-terminus DRPFCPE (translated from primers)
T2 sequence (W8JCL4 33-288): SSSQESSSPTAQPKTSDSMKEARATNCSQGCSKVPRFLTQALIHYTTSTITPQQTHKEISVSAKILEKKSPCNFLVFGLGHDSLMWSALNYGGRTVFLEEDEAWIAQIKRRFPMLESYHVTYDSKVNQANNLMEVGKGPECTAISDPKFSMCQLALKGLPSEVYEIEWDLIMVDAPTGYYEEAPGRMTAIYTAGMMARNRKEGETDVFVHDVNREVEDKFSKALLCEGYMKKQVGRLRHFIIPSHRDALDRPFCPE

[3] = target: T3, PtrGXM3 (Populus trichocarpa, UniProt A9PC88)
T3 construct: gene GXM3; transmembrane domain removed; E. coli; full-length start MRPNKNQ, recombinant start SSPRSNP, C-terminus SGRPFCP (translated from primers)
T3 sequence (A9PC88 34-304): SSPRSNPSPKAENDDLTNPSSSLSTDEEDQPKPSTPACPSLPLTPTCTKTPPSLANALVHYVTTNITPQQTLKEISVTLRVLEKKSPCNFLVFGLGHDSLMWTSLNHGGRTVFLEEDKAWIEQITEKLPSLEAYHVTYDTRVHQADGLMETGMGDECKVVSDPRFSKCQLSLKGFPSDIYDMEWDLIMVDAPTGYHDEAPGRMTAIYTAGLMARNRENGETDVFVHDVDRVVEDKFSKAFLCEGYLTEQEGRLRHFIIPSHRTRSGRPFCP

[4] = target: T4, PtrGXM1 (Populus trichocarpa, UniProt W8JDL1)
T4 construct: gene GXM1; transmembrane domain removed; E. coli; full-length start MRPKGQ, recombinant start PSSQESP, C-terminus DRPFCPE (translated from primers)
T4 sequence (W8JDL1 33-288): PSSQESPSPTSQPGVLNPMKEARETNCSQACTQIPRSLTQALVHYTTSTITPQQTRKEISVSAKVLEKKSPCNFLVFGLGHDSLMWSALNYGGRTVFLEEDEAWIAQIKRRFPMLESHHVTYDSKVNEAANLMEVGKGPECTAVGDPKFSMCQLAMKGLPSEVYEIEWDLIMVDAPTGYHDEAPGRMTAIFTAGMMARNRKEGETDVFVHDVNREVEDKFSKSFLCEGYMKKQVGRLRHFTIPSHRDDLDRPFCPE

Work on GlcA-substituted Xyl4 yielded a Km [1] of 290 µM, a Km [2] of 3980 µM and a Km [3] of 300 µM. It also gave a Km [4] of 3250 µM.
